Test: Binding affinity to NL63-CoV main protease by FRET assay
Set-up: species or system Human coronavirus NL63

`CC(C)(C)[C@H](NC(=O)C(F)(F)F)C(=O)N1C[C@H]2[C@@H]([C@H]1C(=O)N[C@H](C#N)C[C@@H]1CCNC1=O)C2(C)C` gave a Ki of 226 nM.
